{"source": "patent US11679107B2", "about": "(Eisai R&D Management Co., Ltd., priority 2018, dated 2023)", "key": {"[1]": {"system": "NCI-H1568 cells (high MCL1)", "test": "Cell proliferation and viability, CellTiter-Glo, 72 hours", "assay_type": "cell-based", "settings": "72 h; for GI50: NCI-H1568, read-out: CTGlo-ATS GMean GI50 (nM) 72 h NCIH1568.1, geometric mean", "in_short": "(§1)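 RPMI-1640/10% FBS (Panc: + insulin, FBS 15%); 11-pt half-log dose, ~10 μM-100 pM, 0.1% DMSO; 37° C, 5% CO2; ATP luminescence read; % inhibition vs T0 and vehicle, −100% cidal to 100% uninhibited growth.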"}, "[2]": {"system": "Panc 05.04 cells (SF3b K700E mutant)", "test": "Cell proliferation and viability, CellTiter-Glo, 72 hours", "assay_type": "cell-based", "settings": "72 h; for GI50: Panc 05.04, read-out: CTGlo-ATS GMean GI50 (nM) 72 h PANC0504.1, geometric mean", "in_short": "as §1"}, "[3]": {"molecular_target": "T1, SF3b complexes (Homo sapiens, UniProt O75533+Q7RTV0)", "T1 construct": "endogenous in cells; host or cells: Nuclear extracts; A HeLa S3 extract preparation is described for the in vitro splicing assay", "test": "Scintillation proximity assay (SPA) with [3H]-labelled pladienolide probe", "assay_type": "binding", "settings": "SF3B1 (WT); geometric mean; read-out: SPA-ATS GMean IC50 (nM) SF3B1 (WT)", "in_short": "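SF3b complexes captured from nuclear extracts on anti-SF3B1 antibody SPA beads; test compounds pre-incubated 30 min before 2.5 nM [3H]-pladienolide probe added, then 30 min incubation. Bound probe read by scintillation; values from non-linear regression of concentration–response curves.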"}, "[4]": {"system": "Ad2 variant pre-mRNAs spliced in HeLa S3 nuclear extracts", "test": "In vitro splicing assay (IVS), RT-qPCR of spliced product", "assay_type": "biochemical", "settings": "for IC50: geometric mean", "in_short": "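Read-out is one-step TaqMan RT-qPCR of spliced Ad2 mRNA with Ftz as reference, normalized to DMSO and fit by non-linear regression. Reactions held HeLa S3 nuclear extract, 2 ng Ad2-derived pre-mRNA and test compound, with 15 min preincubation. Splicing was started with ATP-containing activation buffer and run 90 min at 30 °C.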"}, "[5]": {"settings": "NCIH1568.1 cells, −100% cidal, 0% static, 100% maximal growth"}, "[6]": {"settings": "PANC0504.1 cells, −100% cidal, 0% static, 100% maximal growth"}, "[7]": {"settings": "Ad2.1 pre-mRNA substrate, read-out: qPCR-IVS-ATS GMean IC50 (nM) Ad2.1"}, "[8]": {"settings": "Ad2.2 pre-mRNA substrate, read-out: qPCR-IVS-ATS GMean IC50 (nM) Ad2.2"}}, "note": "Where two headings read alike, the source gives them in different places.", "data": [{"smiles": "C/C(=C\\c1cc(F)cc(N2CCS(=O)(=O)CC2)c1)[C@H]1OC(=O)C[C@H](O)CC[C@H](C)[C@@H](OC(=O)N(C)C)/C=C/[C@@H]1C", "note": "[Compound 51]", "values": [{"measurement": "GI50", "setting": "[1]; NCIH1568.1 cells", "result": 112, "unit": "nM"}, {"measurement": "CTGlo-ATS Mean MinResponse % 72 h NCIH1568.1", "setting": "[1]; [5]", "result": "−31.962", "unit": "%"}, {"measurement": "CTGlo-ATS Mean MinResponse % 72 h PANC0504.1", "setting": "[2]; [6]", "result": "−78.388", "unit": "%"}, {"measurement": "GI50", "setting": "[2]; PANC0504.1 cells", "result": 80.9, "unit": "nM"}, {"measurement": "IC50", "setting": "[3]", "result": 19.7, "unit": "nM"}, {"measurement": "IC50", "setting": "[4]; [7]", "result": "> 25000", "unit": "nM"}, {"measurement": "IC50", "setting": "[4]; [8]", "result": 88.1, "unit": "nM"}]}, {"smiles": "C/C(=C\\c1cnn(Cc2ccncc2)c1)[C@H]1OC(=O)C[C@H](O)CC[C@H](C)[C@@H](OC(=O)N2CCN(C)CC2)/C=C/[C@@H]1C", "note": "[Compound 102]", "values": [{"measurement": "GI50", "setting": "[1]; NCIH1568.1 cells", "result": 4900, "unit": "nM"}, {"measurement": "CTGlo-ATS Mean MinResponse % 72 h NCIH1568.1", "setting": "[1]; [5]", "result": 31.099, "unit": "%"}, {"measurement": "CTGlo-ATS Mean MinResponse % 72 h PANC0504.1", "setting": "[2]; [6]", "result": 24.371, "unit": "%"}, {"measurement": "GI50", "setting": "[2]; PANC0504.1 cells", "result": 3020, "unit": "nM"}, {"measurement": "IC50", "setting": "[3]", "result": 29.8, "unit": "nM"}, {"measurement": "IC50", "setting": "[4]; [7]", "result": "> 25000", "unit": "nM"}, {"measurement": "IC50", "setting": "[4]; [8]", "result": 507, "unit": "nM"}]}, {"smiles": "C/C(=C\\c1cc(C)cc(N2CCOCC2)c1)[C@H]1OC(=O)C[C@H](O)CC[C@H](C)[C@@H](OC(=O)N2CCN(C)CC2)/C=C/[C@@H]1C", "note": "[Compound 18]", "values": [{"measurement": "GI50", "setting": "[1]; NCIH1568.1 cells", "result": 26.1, "unit": "nM"}, {"measurement": "CTGlo-ATS Mean MinResponse % 72 h NCIH1568.1", "setting": "[1]; [5]", "result": "−60.339", "unit": "%"}, {"measurement": "CTGlo-ATS Mean MinResponse % 72 h PANC0504.1", "setting": "[2]; [6]", "result": "−83.683", "unit": "%"}, {"measurement": "GI50", "setting": "[2]; PANC0504.1 cells", "result": 19.9, "unit": "nM"}, {"measurement": "IC50", "setting": "[3]", "result": 16.7, "unit": "nM"}, {"measurement": "IC50", "setting": "[4]; [7]", "result": 77.5, "unit": "nM"}, {"measurement": "IC50", "setting": "[4]; [8]", "result": 34.3, "unit": "nM"}]}, {"smiles": "C/C(=C\\c1cccc(COC(=O)N2CC[C@@H](F)C2)c1)[C@H]1OC(=O)C[C@H](O)CC[C@H](C)[C@@H](OC(=O)N2CCN(C)CC2)/C=C/[C@@H]1C", "note": "(single isomer, unassigned) [Compound 256]", "values": [{"measurement": "CTGlo-ATS Mean MinResponse % 72 h NCIH1568.1", "setting": "[1]; NCIH1568.1, -100% = cidal, 0% = static, 100% = uninhibited growth", "result": "−5.090", "unit": "%"}, {"measurement": "GI50", "setting": "[1]; NCIH1568.1", "result": 60.9, "unit": "nM"}, {"measurement": "CTGlo-ATS Mean MinResponse % 72 h PANC0504.1", "setting": "[2]; PANC0504.1, -100% = cidal, 0% = static, 100% = uninhibited growth", "result": "−88.839", "unit": "%"}, {"measurement": "GI50", "setting": "[2]; PANC0504.1", "result": 43.4, "unit": "nM"}, {"measurement": "IC50", "setting": "[3]", "result": 15.6, "unit": "nM"}, {"measurement": "IC50", "setting": "[4]; [7]", "result": "> 25000", "unit": "nM"}, {"measurement": "IC50", "setting": "[4]; [8]", "result": 112, "unit": "nM"}, {"measurement": "Ratio Ad2.1/2.2", "setting": "[4]; ratio of IVS IC50 Ad2.1 to Ad2.2", "result": 222.862}]}, {"smiles": "C/C(=C\\c1cccc2c1c(C)nn2C)[C@H]1OC(=O)C[C@H](O)CC[C@H](C)[C@@H](OC(=O)N2CCN(C)CC2)/C=C/[C@@H]1C", "note": "[Compound 97]", "values": [{"measurement": "GI50", "setting": "[1]; NCIH1568.1 cells", "result": 4370, "unit": "nM"}, {"measurement": "CTGlo-ATS Mean MinResponse % 72 h NCIH1568.1", "setting": "[1]; [5]", "result": 11.801, "unit": "%"}, {"measurement": "CTGlo-ATS Mean MinResponse % 72 h PANC0504.1", "setting": "[2]; [6]", "result": 46.987, "unit": "%"}, {"measurement": "GI50", "setting": "[2]; PANC0504.1 cells", "result": 9140, "unit": "nM"}, {"measurement": "IC50", "setting": "[3]", "result": 240, "unit": "nM"}, {"measurement": "IC50", "setting": "[4]; [7]", "result": "> 25000", "unit": "nM"}, {"measurement": "IC50", "setting": "[4]; [8]", "result": 2890, "unit": "nM"}]}, {"smiles": "C/C(=C\\c1cc(F)cc(N2CCN(CCO)CC2)c1)[C@H]1OC(=O)C[C@H](O)CC[C@H](C)[C@@H](OC(=O)N2CCN(C)CC2)/C=C/[C@@H]1C", "note": "[Compound 12]", "values": [{"measurement": "GI50", "setting": "[1]; NCIH1568.1 cells", "result": 3.64, "unit": "nM"}, {"measurement": "CTGlo-ATS Mean MinResponse % 72 h NCIH1568.1", "setting": "[1]; [5]", "result": "−92.161", "unit": "%"}, {"measurement": "CTGlo-ATS Mean MinResponse % 72 h PANC0504.1", "setting": "[2]; [6]", "result": "−73.954", "unit": "%"}, {"measurement": "GI50", "setting": "[2]; PANC0504.1 cells", "result": 7.55, "unit": "nM"}, {"measurement": "IC50", "setting": "[3]", "result": 4.88, "unit": "nM"}, {"measurement": "IC50", "setting": "[4]; [7]", "result": 14.7, "unit": "nM"}, {"measurement": "IC50", "setting": "[4]; [8]", "result": 13.5, "unit": "nM"}]}, {"smiles": "C/C(=C\\c1cc(F)cc(N2CC(F)C2)c1)[C@H]1OC(=O)C[C@H](O)CC[C@H](C)[C@@H](OC(=O)N2CCN(C)CC2)/C=C/[C@@H]1C", "note": "[Compound 38]", "values": [{"measurement": "GI50", "setting": "[1]; NCIH1568.1 cells", "result": 19.6, "unit": "nM"}, {"measurement": "CTGlo-ATS Mean MinResponse % 72 h NCIH1568.1", "setting": "[1]; [5]", "result": "−54.093", "unit": "%"}, {"measurement": "CTGlo-ATS Mean MinResponse % 72 h PANC0504.1", "setting": "[2]; [6]", "result": "−88.672", "unit": "%"}, {"measurement": "GI50", "setting": "[2]; PANC0504.1 cells", "result": 14.4, "unit": "nM"}, {"measurement": "IC50", "setting": "[3]", "result": 3.1, "unit": "nM"}, {"measurement": "IC50", "setting": "[4]; [7]", "result": 1020, "unit": "nM"}, {"measurement": "IC50", "setting": "[4]; [8]", "result": 25.2, "unit": "nM"}]}, {"smiles": "C/C(=C\\c1cc(F)cc(N2CCN(C#CF)C2=O)c1)[C@H]1OC(=O)C[C@H](O)CC[C@H](C)[C@@H](OC(=O)N2CCN(C)CC2)/C=C/[C@@H]1C", "note": "[Compound 66]", "values": [{"measurement": "GI50", "setting": "[1]; NCIH1568.1 cells", "result": 11.7, "unit": "nM"}, {"measurement": "CTGlo-ATS Mean MinResponse % 72 h NCIH1568.1", "setting": "[1]; [5]", "result": "−64.699", "unit": "%"}, {"measurement": "CTGlo-ATS Mean MinResponse % 72 h PANC0504.1", "setting": "[2]; [6]", "result": "−89.623", "unit": "%"}, {"measurement": "GI50", "setting": "[2]; PANC0504.1 cells", "result": 8.22, "unit": "nM"}, {"measurement": "IC50", "setting": "[3]", "result": 2.23, "unit": "nM"}, {"measurement": "IC50", "setting": "[4]; [7]", "result": 206, "unit": "nM"}, {"measurement": "IC50", "setting": "[4]; [8]", "result": 33.9, "unit": "nM"}]}]}
